Test results as given in patent US20090196930A1, “AEROSOLIZED NITRITE AND NITRIC OXIDE -DONATING COMPOUNDS AND USES THEREOF” (Aires Pharmaceuticals, Inc., priority 2007, published 2009).
Read-outs that look alike come from different tables or passages of the source.

How the values were obtained:
[1] = cited from earlier work
[2] = tested on: phenylepherine-induced contractions of aortic rings; experiment: Isolated rat aortic ring relaxation
Text: The isolated rat aortic ring model tests whether a drug solution reduces the phenylepherine-induced pre-contractions of aortic rings. Briefly, rat aorta was excised and cleansed of fat and adhering tissue. Vessels were then cut into individual ring segments (2-3 mm in width) and suspended from a force-displacement transducer in a tissue bath. […] A passive load of 2 grams was applied to all ring segments and maintained at this level throughout the experiments. At the beginning of each experiment, indomethacin-treated ring segments were depolarized with KCl (70 mM) to determine the maximal contractile capacity of the vessel. Rings were then washed extensively and allowed to equilibrate. For subsequent experiments, vessels were submaximally contracted (50% of KCl response) with phenylephrine (PE) (3×10^−8-10^−7 M).
Briefly, a rat aorta was excised and cleansed of fat and adhering tissue. Vessels were then cut into individual ring segments (2-3 mm in width) and suspended from a force-displacement transducer in a tissue bath. […] A passive load of 2 grams was applied to all ring segments and maintained at this level throughout the experiments. At the beginning of each experiment, indomethacin-treated ring segments were depolarized with KCl (70 mM) to determine the maximal contractile capacity of the vessel. Rings were then washed extensively and allowed to equilibrate. […]

[3] = NAL DPI formulation, monodose DPI device, in vitro; cited from earlier work

Molecule: NC(=O)CN(CC(=O)O)CC(=O)O [ADA, N-(2-ametamino)iminodiacetic acid]
- pKa ([1]; exemplary buffers of Table 1): 6.60
- pKa ([1]; exemplary buffers of Table 2): 6.6

Molecule: CC(C)(CO)NCC(O)CS(=O)(=O)O (centres unmarked) [AMPSO, N-(1,1-dimethyl-2-hydroxyethyl)-3-amino-2-hydroxypropane-sulfonic acid]
- pKa ([1]; exemplary buffers of Table 2): 9.0

Molecule: O=S(=O)(O)CCN(CCO)CCO [BES, N,N-Bis(2-hydroxyethyl)-2-aminoethanesulfonic acid]
- pKa ([1]; exemplary buffers of Table 2): 7.1

Molecule: OCC(CO)(CO)NCCCNC(CO)(CO)CO [BIS-TRIS Propane, 1,3-Bis[tris(hydroxymethyl)methylamino]propane]
- pKa ([1]; exemplary buffers of Table 2): 6.8

Molecule: O=S(=O)(O)CCNC1CCCCC1 [CHES, 2-(cyclohexylamino)ethanesulfonic acid]
- pKa ([1]; exemplary buffers of Table 2): 9.3

Molecule: O=S(=O)(O)CCCN1CCN(CCO)CC1 [EPPS, N-(2-hydroxyethyl)piperazine-N′-(3-propanesulfonic acid)]
- pKa ([1]; exemplary buffers of Table 2): 8.0

Molecule: O=S(=O)(O)CCN1CCN(CCS(=O)(=O)O)CC1 [PIPES, Piperazine-N,N′-bis(2-ethanesulfonic acid)]
- pKa ([1]; exemplary buffers of Table 1): 6.76
- pKa ([1]; exemplary buffers of Table 2): 6.8

Molecule: CCCc1nn(C)c2c(=O)[nH]c(-c3cc(S(=O)(=O)N4CCN(C)CC4)ccc3OCC)nc12 [Sildenafil]
- reduction in phenylepherine-induced aortic constriction ([2]; 50 nM sildenafil): ~50%
- EC50 ([2]; relaxation of phenylephrine-contracted rat aortic rings, read-out: ED50 (the source's name)): 50 nM

Molecule: O=S(=O)(O)CC(O)CNC(CO)(CO)CO (centres unmarked) [TAPSO, 2-hydroxy-3-[tris(hydroxymethyl)methylamino]-1-propanesulfonic acid]
- pKa ([1]; exemplary buffers of Table 2): 7.6

Molecule: O=C(O)CNC(CO)(CO)CO [Tricine]
- pKa ([1]; exemplary buffers of Table 2): 8.1

Molecule: L-lysine-N-acetylcysteinate [NAL]
- fine particle fraction (FPF) of the nominal dose [3]: at least 30%
